Measured values from a melting point compilation (Tetko et al.; mined from patent text by program, amines drawn as free bases though some values may be those of a salt).

melting point | Structure (SMILES)
> 290 °C | O=C1N=CNC(=O)C1Cc1ccccc1C(F)(F)F (stereo not drawn)
125 °C | CN(C(=O)Nc1ccc2ccccc2c1)c1cccc(-c2ccc(CC(Nc3ccccc3C(=O)c3ccccc3)C(=O)O)cc2)c1 (stereo not drawn)
148 to 152 °C | Cc1cc(C)cc(-c2nc3ncccc3o2)c1
111 to 113 °C | Cc1cc(Oc2c(Cl)cc(C(F)(F)F)cc2Cl)nn1C(=O)NCC=O
203 to 205 °C | COCc1nc2cc3c(cc2[nH]1)NC(=O)C3(C)C
175 to 178 °C | CCOC(=CC=O)C1CCC2C3CCC4CC(O)CCC4(C)C3C(=O)CC12C (stereo not drawn)
260 to 261 °C | O=C1Nc2ccccc2Sc2ncccc21
233 to 234 °C | CCOCc1nc2c(N)nc3cc(Br)ccc3c2n1CC1CCN(S(C)(=O)=O)CC1
140 to 144 °C | CC(C)CC1NCC(C)(C)NC1=O (stereo not drawn)
110 °C | CCCCc1nc(CO)c(SCC)n1Cc1ccc(-c2ccccc2C(=O)OC)cc1
192 to 195 °C | Cc1c(C(=O)c2cnn(C)c2O)ccc2sc(=O)n(C)c12
155 to 158 °C | Brc1cc(C#Cc2ccccc2)c(Br)cc1C#Cc1ccccc1
91.5 to 92.5 °C | CCOC(=O)Cc1ccc(NC(=O)c2cc(C(C)C)c(C(C)C)o2)cc1
61 to 62 °C | CC(=O)NCc1ccc(C(C)O)cc1 (stereo not drawn)
127 to 129 °C | COc1cc2c(cc1Br)-c1cc3c(n1CC2)C(=O)N(C(C)(C)C)CCCC3
64 to 65 °C | CCOC(=O)c1cnc(Nc2cc(OC)c(OC)c(OC)c2)nc1-c1ccccc1
142 to 143 °C | Cc1nnc2c(-c3ccccn3)cccn12
86 to 87 °C | CCCc1sc(-c2ccccc2)nc1O
140 °C | Cc1cc(-n2ccnc2)c2cccc(OCc3c(Cl)ccc(S(=O)(=O)N4C[C@H](O)C[C@H]4C(=O)O)c3Cl)c2n1
153 to 154 °C | N#Cc1ccc(O)c(C2(C(=O)O)CCCC2)c1
192 to 193 °C | COc1cccc(CNc2n[nH]c3ncnc(Nc4cccc(Cl)c4)c23)c1
120 to 121 °C | CC(C)Cn1nc(-c2ccccc2)cc(C(=O)O)c1=O
277 to 281 °C | Cc1nc(NCc2ccccc2C)c2nc(-c3ccccc3)cc-2[nH]1

melting point | Structure (SMILES)
146 °C | Nc1cc(=O)n(Cc2ccccc2F)[nH]1
144 to 147 °C | Oc1ccc2c(c1)[C@H](O)[C@H](Cc1cccnc1)CO2 (relative stereo)
130 to 132 °C | O=C(OCC1OC(n2cc(F)c(=O)[nH]c2=O)CC1OCc1ccccc1)c1cccnc1 (stereo not drawn)
134 °C | CCOC(=O)c1cc(C)nc2c(OCc3ccccc3)cccc12
45 to 48 °C | CCCn1cc(C(=O)NCc2ccc(Cl)cc2)c(=O)c2cc(CN(C)C[C@@H](O)c3ccccc3)sc21
176 to 178 °C | Cc1ccc2c(c1)C(=O)C(C#N)C2=O (stereo not drawn)
138 to 140 °C | CCOC(=O)CCCOc1c(Br)cc(Br)c(C(N)=O)c1Br
116 to 117 °C | CCCCCCC(C)Oc1cc(O)c2c(C)c(CCC(=O)OCC)c(=O)oc2c1 (stereo not drawn)
66 to 67 °C | CCCc1cc2c(cc1CC#N)OCO2
221 to 224 °C | CCNCC1CCN(c2c(F)cc3c(=O)c(C(=O)O)cn4c3c2OCC4CC)C1 (stereo not drawn)
> 250 °C | Cn1c2c(cnc3c(N)cccc32)c(=O)n1C(=O)OC(C)(C)C
181 to 182 °C | C=CCNc1nc(N2CCc3ccccc3CC2)c(C#N)c(=O)n1CC=C
128 to 130 °C | CCOC(=O)c1cnc(CCOC)nc1NCc1ccc(-c2ccccc2-c2nnnn2C(c2ccccc2)(c2ccccc2)c2ccccc2)cc1
218 to 220 °C | CN1CCN(Cc2ccc(NC(=O)c3cccc4cc(Oc5ccnc(NC(=O)C6CC6)c5)ccc34)cc2C(F)(F)F)CC1
130 to 132 °C | OCCOCCn1ccc2ncnc(Nc3ccc(Oc4cccc(C(F)(F)F)c4)c(Cl)c3)c21
209 to 210 °C | O=C1Nc2ccncc2C(c2ccccc2)N1C1CCN(Cc2ccccc2)CC1 (stereo not drawn)
284 to 285 °C | NC(=O)Cc1cc(Oc2ccc3c(ccn3C(=O)Nc3ccc(N4CCS(=O)(=O)CC4)c(C(F)(F)F)c3)c2)ncn1
93.9 °C | Nc1ccc2c(c1)COc1cc(Nc3ccc(C(F)(F)F)cc3N)ccc1C2=O
179 to 180 °C | COc1ccc(C(=O)Nc2ccccc2)c2c1OCC2CC(=O)OCc1ccccc1 (stereo not drawn)
204 to 205 °C | N#Cc1c[nH]c2c(NS(=O)(=O)c3cccc(Cl)c3)cccc12
292 to 294 °C | CC(C)(C)c1ccc(-c2nc(NC(=O)c3ccccc3)sc2-c2ccncc2)cc1
233 to 235 °C | O=C(Oc1ccc(N2c3ccccc3S(=O)(=O)c3ccccc32)cc1)c1ccccc1
155 to 156 °C | Cc1cccc2c1nc(-c1c(F)cccc1F)n2Cc1c(F)c(F)c(F)c(F)c1F

melting point | Structure (SMILES)
110 to 111 °C | O=c1c2ccc(F)cc2ncn1Cc1ccccc1
218 to 220 °C | O=C1CC2(C(=O)N1)C(=O)N(Cc1ccc(Br)cc1)c1ccccc12 (stereo not drawn)
92 to 93 °C | CCOC(=O)N(CCCOCCOCCCN(C(=O)OCC)C1CC(C)(C)NC(C)(C)C1)C1CC(C)(C)NC(C)(C)C1
158 to 161 °C | Nc1ccc(C(=O)Nc2ccccc2C(c2ccc(O)cc2)c2ccc(O)cc2)cc1
100 to 102 °C | CC(C)(C)OC(=O)N1CCC(CCCCN2C(=O)c3ccccc3C2=O)CC1
258 to 261 °C | COC(=O)c1c(Cc2ccc(C(=O)O)cc2)c(=O)c2ccc(Cl)cc2n1-c1ccccc1
185 to 187 °C | CC1(C)CCCc2ccc(CC#Cc3ccc(C(=O)O)c(O)c3)cc21
95 to 96 °C | CC[C@@H](Cc1ccc(OC)c(C(=O)NCc2ccccc2Oc2ccc(F)cc2)c1)C(=O)O
61 °C | COCc1ncc(OC)c(=O)[nH]1
83 to 85 °C | CC1(C)CC(C)(C)CC(CCCc2ccccc2)(NC(=O)CCl)C1
140 to 141 °C | Cc1c(C)c(N2CCN(c3ccc(C(F)(F)F)cc3)CC2)c(C)c2c1OC(C)(C)C2N1CCCC1 (stereo not drawn)
161 °C | CCc1cn2ccccc2c1S(=O)(=O)c1cc(C)c(OS(=O)(=O)c2ccc(C)cc2)c(C)c1
222 to 224 °C | COc1cccc(CNc2cc(C(N)=O)c([N+](=O)[O-])cc2[N+](=O)[O-])c1
82 °C | NC(=NCC(F)(F)F)Nc1ccn(CCO)n1
273 to 275 °C | Cc1c(-c2cccnc2)n(Cc2ccc(C(=O)O)cc2)c2ccccc12
169 to 172 °C | CC(C)(C)C(=O)Nc1cnc(C(=O)CO)cn1
116 to 118 °C | CC(C)=CCOc1ccc2c(=O)c3ccccc3oc2c1C(=O)C=Cc1ccccc1
180 to 182 °C | CC(C)(C)OC(=O)COC1CCN(C(=O)[C@]2(C)CCCN2C(=O)c2ccc(C#N)cc2)CC1
180 °C | CCOC(=O)CCCCOc1ccc2c(c1)CC1CC(=O)NC1=N2 (stereo not drawn)
208 to 210 °C | ON=Cc1ccc(-c2ccc(O)cc2)c(Cl)c1Cl
271 to 274 °C | O=c1c2c(Cc3ccc(F)cc3)n[nH]c2c2cccnc2n1-c1ccccc1
69 to 70 °C | CCOC(=O)CNCc1c(N)ccc(N2CCCC2)c1Cl
154 to 156 °C | COC(=O)C1=Cc2cc(-c3ccc(N4CCOCC4)cc3)ccc2SCC1

melting point | Structure (SMILES)
102 to 103 °C | CN1CCN(C2CC(=O)c3ccc(F)cc32)CC1 (stereo not drawn)
169 to 171 °C | CCC(CC)c1ccc(Cl)c2nc3n(c12)CCN3c1ccc(Cl)cc1Br
221 °C | N=C(NO)c1ccc(-c2ccc([N+](=O)[O-])c(C(F)(F)F)c2)o1
155 to 156 °C | CCCCOCCOc1ccc(-c2ccc(N3CCCC3)c(C=C(CC)C(=O)O)c2)cc1
218 to 220 °C | O=c1c(CCCO)c(O)c2cccnc2n1-c1ccccc1
287 to 288 °C | COc1ccc2nc(C(=O)NCc3ccc(C(=O)O)cc3)[nH]c(=O)c2c1
142 to 144 °C | CCC1(CCCCN2CCN(c3cccc(Cl)c3)CC2)C(=O)Nc2ccc(C)cc21 (stereo not drawn)
148 to 150 °C | CC(C)CC(CP(=O)(O)CNC(=O)c1ccccc1)C(=O)N(c1ccc(-c2ccccc2)cc1)[C@@H](C)C(=O)O (stereo partly drawn)
193 to 194 °C | CC(=O)Oc1cccc2c(-c3ccccc3)c3cccc(OC(C)=O)c3c(OC(C)=O)c12
139 to 141 °C | O=C(Nc1ccccc1)c1cccc([N+](=O)[O-])c1C(=O)Nc1ccccc1
87 to 90 °C | CC(C)(OC(=O)C1C2CCC(C2)C1C(F)(F)F)C(F)(F)F (stereo not drawn)
212 to 214 °C | Cc1nc(Cc2ccccc2)c2c(c1O)COC2
209 to 211 °C | CC(=O)Nc1c(OC(C)=O)cc(C)c(C)c1[N+](=O)[O-]
126 °C | N#CC1(C#N)C2CC(C(Cl)C2Cl)C1(Cl)Cl (stereo not drawn)
99 to 102 °C | Nc1ccc(S(=O)(=O)CCCO)cc1
160 to 163 °C | COc1ccc(-c2c(CC(=O)O)c(-c3ccccc3)nn2-c2ccccc2)cc1
133 to 134 °C | CC(=C1SCCCS1)c1cccc(OCC(=O)O)c1
121 to 122 °C | COc1ccc(COc2c(C)c(C)c3c(c2C)C(c2ccc(N4CCN(C)CC4)cc2)C(C)(C)O3)cc1 (stereo not drawn)
218 to 221 °C | COc1cc2c(cc1OC)-c1c(-c3nc(C)no3)c(-c3cc(C)c(O)c(C)c3)c(C)n1CC2
233 to 236 °C | CN(CCF)c1nc2cc(NC(=O)c3c(C(=O)N4CC(F)C4)cnn3C)ccn2n1
173 to 178 °C | O=[N+]([O-])c1ccc2c(c1)C(=NO)CCO2
129 to 130 °C | CNC(=O)N(O)C(C)c1ccc(Br)cc1 (stereo not drawn)
76 to 77 °C | c1csc(-c2nc(COc3ccc(CCCn4ccnc4)cc3)cs2)c1

Structure (SMILES) | melting point
OCCn1nnnc1S | 135 to 137 °C
CCOC(=O)c1cc2c3ccccc3n(CCCc3ccccc3)c2c(C)n1 | 101 to 102 °C
CCc1ccc(CC2N=C(c3ccc(F)cc3)c3cc(Cl)ccc3N(C)C2=O)cc1CC (stereo not drawn) | 54 to 56 °C
CC(C)N1C(=O)N(c2ccc(C#N)c(C(F)(F)F)c2)C(=O)C1(CF)CF | 153 to 154 °C
CC(C)(C)OC(=O)NC12CCC1CNC2 (stereo not drawn) | 113 to 116 °C
O=C(NC1CN2CCC1CC2)c1cccc2c1CCC2 (racemic) | 158 °C
